Tests used:
[1] = target: T1, purified LasB protein from P. aeruginosa (Pseudomonas aeruginosa, UniProt P14756); assay: Fluorometric assay to determine Ki (Abz-Ala-Gly-Leu-Ala-p-Nitro-Benzyl-Amide substrate); type: biochemical
T1 construct: purchased Merck or Charles River Laboratories
Description: (§1) Experiments were therefore conducted (1) to measure the potency of inhibition of compounds of the invention against purified Pseudomonas aeruginosa LasB enzyme and also experiments were conducted (2) to measure the ability of compounds of the invention to inhibit LasB-catalysed elastin degradation. The first assay uses a commercial fluorescent synthetic peptide and purified LasB enzyme. The LasB hydrolysis kinetics are measured allowing the determination of the IC50 and Ki of the inhibitors; the second is a more physiological assay using dialysed Pseudomonas aeruginosa supernatant as source of enzyme, plus its natural substrate Elastin. It is an "end point assay" that determines the percentage of LasB inhibition by each compound for one particular time point and inhibitor concentration. Technical details are described below:
This assay uses commercially available substrate (Abz-Ala-Gly-Leu-Ala-p-Nitro-Benzyl-Amide (Ex: 340 nm, Em: 415 nm) from Peptide International) and purified LasB protein from P. aeruginosa (provided by Merck or Charles River Laboratories). It is performed to determine LasB elastase activity and assess compound inhibition in 96-well plate format. All compounds of Formula (I) were assessed using the method described below.
Method: 10 to 140 ng/ml purified LasB is incubated with 250 µM Abz-Ala-Gly-Leu-Ala-p-Nitro-Benzyl-Amide in 50 mM Tris-HCl pH 7.4, 2.5 mM CaCl2, 0.01% of Triton X100 at 37°C. LasB activity (corresponding to fluorescence emission induced by substrate hydrolysis) is measured over 30 min at 37°C with a fluorescence plate reader such as the Perkin Elmer Envision or similar. Different range of inhibitor concentrations are routinely assessed depending of inhibitor potency from 0.0016 to 200 µM (2-fold dilutions series) in order to determine IC50.
The equation used to calculate the Ki from IC50 is: Ki = IC50 / (1+([S]/Km)) where [S] = 250 µM and Km = 214 µM.

LasB = target: T2, LasB (Pseudomonas aeruginosa, UniProt P14756); assay: Elastin assay to determine % inhibition (Elastin Congo-Red, dialysed culture supernatant); type: biochemical, P. aeruginosa PAO1; settings: read-out: Elastin hydrolysis % inhibition @ 50 / 25 µM inhibitor concentration
T2 construct: uses as source of enzyme dialysed supernatant from P. aeruginosa PAO1; endogenous in cells; host or cells: P. aeruginosa PAO1 culture supernatant, filtered and dialysed
Description: as §1
The Elastin assay uses as source of enzyme dialysed supernatant from P. aeruginosa PAO1 and the Elastin Congo-Red as substrate. The natural LasB substrate, elastin, is complexed with the congo-red dye (Elastin Congo-Red, ECR). The elastolysis activity from the culture supernatant will degrade elastin and release the congo-red dye into the supernatant. This red dye release can be measured with a spectrophotometer.
Method: To determine LasB elastase activity and assess compound inhibition, an overnight culture of P. aeruginosa strain PAO1 is diluted in LB medium. After reaching an OD600nm of 0.6, this culture is diluted and incubated for additional 18-24 hours in a shaking incubator. Culture supernatants are recovered by centrifugation and filtrated through a […] filter. These supernatants are dialysed (filtration molecules < 20kDa) into a 50 mM Tris-HCl pH 7.4, 2.5 mM CaCl2 solution at 4°C under agitation for 24 hours. Supernatant dialysed is then mixed volume/volume with the ECR suspension (20 mg/mL of ECR in 100 mM Tris-HCl pH 7.4 buffer supplemented with 1 mM CaCl2) supplemented with Triton X100 (final concentration of 0.01%) in presence of DMSO (positive control) and/or different concentrations of compound (routinely 50 to 1.56 µM). As a negative control, the dialysed supernatant is replaced by Tris-HCl solution (50 mM Tris-HCl pH 7.4, 2.5 mM CaCl2). The mixed reaction is then incubated overnight in a 37°C shaking incubator. The reaction supernatant is recovered by centrifugation and the release of congo-red is measured by its absorbance at 495 nm (OD495nm).
Percentage inhibition is determined using the following equation: ((OD495nmvalue of positive control−OD495nmvalue of negative control)−(OD495nmvalue of treated supernatant−OD495nmvalue of positive control))/(OD495nmvalue of positive control−OD495nmvalue of negative control) × 100. [formula]

T1 sequence (P14756 198-498): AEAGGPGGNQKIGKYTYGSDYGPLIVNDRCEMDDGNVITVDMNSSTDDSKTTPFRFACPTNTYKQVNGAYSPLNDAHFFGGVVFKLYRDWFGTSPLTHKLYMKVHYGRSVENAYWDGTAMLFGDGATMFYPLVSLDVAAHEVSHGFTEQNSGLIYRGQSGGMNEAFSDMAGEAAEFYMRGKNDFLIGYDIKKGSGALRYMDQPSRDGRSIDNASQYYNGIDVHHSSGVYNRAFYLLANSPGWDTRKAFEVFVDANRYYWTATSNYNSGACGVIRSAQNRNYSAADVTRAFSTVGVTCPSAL
T2 sequence (P14756 198-498): as above

Compound	Ki [1] [nM]	inhibition at 25 µM (LasB) [%]
CN(C)CC(=O)N1CCC(n2cc(-c3csc(CNC(=O)C4(CC(=O)O)Cc5ccccc5C4)n3)cn2)CC1 [Example 103, 2-[2-[[4-[1-[1-[2-(dimethylamino)acetyl]-4-piperidyl]pyrazol-4-yl]thiazol-2-yl]methylcarbamoyl]indan-2-yl]acetic acid]	200 to 10000	60 to 75
COc1cc(OCCCN2CCCC2)ccc1-c1csc(CNC(=O)C2(CC(=O)O)Cc3cc(F)c(F)cc3C2)n1 [Example 72, 2-[5,6-difluoro-2-[[4-[2-methoxy-4-(3-pyrrolidin-1-ylpropoxy)phenyl]thiazol-2-yl]methylcarbamoyl]indan-2-yl]acetic acid]	< 50	10 to 60
O=C(O)CC1(C(=O)NCc2nc(-c3ccc(OCCCN4CCCC4)cc3)cs2)Cc2ccccc2C1 [Example 58, 2-[2-[[4-[4-(3-pyrrolidin-1-ylpropoxy)phenyl]thiazol-2-yl]methylcarbamoyl]indan-2-yl]acetic acid]	50 to 200	60 to 75
Cc1c(-c2csc(CNC(=O)C3(CC(=O)O)Cc4ccccc4C3)n2)cnn1C [Example 91, 2-[2-[[4-(1,5-dimethylpyrazol-4-yl)thiazol-2-yl]methylcarbamoyl]indan-2-yl]acetic acid]	50 to 200	> 75
CN1CCN(c2cccc(-c3csc(CNC(=O)C4(CC(=O)O)Cc5ccccc5C4)n3)c2)CC1 [Example 28, 2-[2-[[4-[3-(4-methylpiperazin-1-yl)phenyl]thiazol-2-yl]methylcarbamoyl]indan-2-yl]acetic acid]	200 to 10000	60 to 75
CN1CCN(CCCn2cc(-c3csc(CNC(=O)C4(CC(=O)O)Cc5ccccc5C4)n3)cn2)CC1 [Example 108, 2-[2-[[4-[1-[3-(4-methylpiperazin-1-yl)propyl]pyrazol-4-yl]thiazol-2-yl]methylcarbamoyl]indan-2-yl]acetic acid]	50 to 200	60 to 75
COc1ccc(S(=O)(=O)N2CCC(N(C)C)CC2)cc1-c1csc(CNC(=O)C2(CC(=O)O)Cc3cc(F)c(F)cc3C2)n1 [Example 125, 2-[2-[[4-[5-[[4-(dimethylamino)-1-piperidyl]sulfonyl]-2-methoxy-phenyl]thiazol-2-yl]methylcarbamoyl]-5,6-difluoro-indan-2-yl]acetic acid]	50 to 200	10 to 60
NCCOc1ccccc1-c1csc(CNC(=O)C2(CC(=O)O)Cc3ccccc3C2)n1 [Example 14, 2-[2-[[4-[2-(2-aminoethoxy)phenyl]thiazol-2-yl]methylcarbamoyl]indan-2-yl]acetic acid]	200 to 10000	10 to 60
COc1ccc(-c2csc(CNC(=O)C3(CC(=O)O)Cc4ccccc4C3)n2)cc1 [Example 6, 2-[2-[[4-(4-methoxyphenyl)thiazol-2-yl]methylcarbamoyl]indan-2-yl]acetic acid]	50 to 200	> 75
O=C([O-])CC1(C(=O)NCc2nc(-c3ccc(OCCC[n+]4ccccc4)cc3)cs2)Cc2ccccc2C1 [Example 59, 2-[2-[[4-[4-(3-pyridm-1-ium-1-ylpropoxy)phenyl]thiazol-2-yl]methylcarbamoyl]indan-2-yl]acetate]	50 to 200	60 to 75
CN1CCN(c2ccc(-c3csc(CNC(=O)C4(CC(=O)O)Cc5ccccc5C4)n3)cc2)CC1 [Example 26, 2-[2-[[4-[4-(4-methylpiperazin-1-yl)phenyl]thiazol-2-yl]methylcarbamoyl]indan-2-yl]acetic acid]	50 to 200	60 to 75
CN(C)C1CCN(S(=O)(=O)c2cc(-c3csc(CNC(=O)C4(CC(=O)O)Cc5cc(F)c(F)cc5C4)n3)ccc2OCCCN2CCCC2)CC1 [Example 139, 2-[2-[[4-[3-[[4-(dimethylamino)-1-piperidyl]sulfonyl]-4-(3-pyrrolidin-1-ylpropoxy)phenyl]thiazol-2-yl]methylcarbamoyl]-5,6-difluoro-indan-2-yl]acetic acid]	50 to 200	10 to 60
CN1CCN(S(=O)(=O)c2cc(-c3csc(CNC(=O)C4(CC(=O)O)Cc5ccccc5C4)n3)ccc2OCCN2CCOCC2)CC1 [Example 132, 2-[2-[[4-[3-(4-methylpiperazin-1-yl)sulfonyl-4-(2-morpholinoethoxy)phenyl]thiazol-2-yl]methylcarbamoyl]indan-2-yl]acetic acid]	< 50	> 75
O=C(O)CC1(C(=O)NCc2nc(-c3cccc(O)c3)cs2)Cc2ccccc2C1 [Example 12, 2-[2-[[4-(3-hydroxyphenyl)thiazol-2-yl]methylcarbamoyl]indan-2-yl]acetic acid]	50 to 200	60 to 75
COc1cc(OCC[N+]2(C)CCOCC2)ccc1-c1csc(CNC(=O)C2(CC(=O)[O-])Cc3ccccc3C2)n1 [Example 67, 2-[2-[[4-[2-methoxy-4-[2-(4-methylmorpholin-4-ium-4-yl)ethoxy]phenyl]thiazol-2-yl]methylcarbamoyl]indan-2-yl] acetate]	50 to 200	60 to 75
CS(=O)(=O)c1cc(-c2csc(CNC(=O)C3(CC(=O)O)Cc4ccccc4C3)n2)ccc1OCCCN1CCOCC1 [Example 60, 2-[2-[[4-[3-methylsulfonyl-4-(3-morpholinopropoxy)phenyl]thiazol-2-yl]methylcarbamoyl]indan-2-yl]acetic acid]	< 50	60 to 75
CN(C)[C@@H]1CCN(C(=O)c2ccc(-c3csc(CNC(=O)C4(CC(=O)O)Cc5ccccc5C4)n3)cc2)C1 [Example 19, 2-[2-[[4-[4-[(3R)-3-(dimethylamino)pyrrolidine-1-carbonyl]phenyl]thiazol-2-yl]methylcarbamoyl]indan-2-yl]acetic acid]	200 to 10000	60 to 75
CN1CCN(CC(=O)Nc2ccc(-c3csc(CNC(=O)C4(CC(=O)O)Cc5ccccc5C4)n3)cc2)CC1 [Example 45, 2-[2-[[4-[4-[[2-(4-methylpiperazin-1-yl)acetyl]amino]phenyl]thiazol-2-yl]methylcarbamoyl]indan-2-yl]acetic acid]	50 to 200	60 to 75
O=C(O)CC1(C(=O)NCc2nc(-c3cccnc3)cs2)Cc2ccccc2C1 [Example 8, 2-[2-[[4-(3-pyridyl)thiazol-2-yl]methylcarbamoyl]indan-2-yl]acetic acid]	50 to 200	60 to 75
CN1CCN(C(=O)CN2CCN(c3ccc(-c4csc(CNC(=O)C5(CC(=O)O)Cc6ccccc6C5)n4)cc3)CC2)CC1 [Example 36, 2-[2-[[4-[4-[4-[2-(4-methylpiperazin-1-yl)-2-oxo-ethyl]piperazin-1-yl]phenyl]thiazol-2-yl]methylcarbamoyl]indan-2-yl]acetic acid]	< 50	> 75
CN(C)CC#Cc1ccc(-c2csc(CNC(=O)C3(CC(=O)O)Cc4ccccc4C3)n2)cc1 [Example 37, 2-[2-[[4-[4-[3-(dimethylamino)prop-1-ynyl]phenyl]thiazol-2-yl]methylcarbamoyl]indan-2-yl]acetic acid]	50 to 200	60 to 75
CN(C)CCNC(=O)c1ccc(-c2csc(CNC(=O)C3(CC(=O)O)Cc4ccccc4C3)n2)cc1 [Example 15, 2-[2-[[4-[4-[2-(dimethylamino)ethylcarbamoyl]phenyl]thiazol-2-yl]methylcarbamoyl]indan-2-yl]acetic acid]	200 to 10000	60 to 75
